Positions of bridges follow the written chain, without caps; N, C: chain ends. Non-standard residues stand in square brackets, D forms with d. Residues, ends and D or L forms follow the SMILES beside them. Chains are numbered I, II in the order given. *: point of attachment. PEG6 = NCCOCCOCCOCCOCCOCCOCCC(=O)O; Palmitoyl = CCCCCCCCCCCCCCCC(=O)*
B1: BDNF protein: Human/Murine/Rat BDNF protein (Peprotech) (protein, UniProt P23560 19-247, looked up)
Neurotrophic factor BDNF …: APMKEANIRGQGGLAYPGVRTHGTLESVNGPKAGSRGLTSLADTFEHVIEELLDEDQKVRPNEENNKDADLYTSRVMLSSQVPLEPPLLFLLEEYKNYLDAANMSMRVRRHSDPARRGELSVCDSISEWVTAADKKTAVDMSGGTVTVLEKVPVSKGQLKQYFYETKCNPMGYTKEGCRGIDKRHWNSQCRTTQSYVRALTMDSKKRIGWRFIRIDTSCVCTLTIKRGR

Key:
MAPK pathway (pErk 1/2) = experiment: MAPK pathway activation, western blot of phosphorylated Erk (pErk 1/2); format: cell-based, mouse; details: 6 h of treatment, vs control conditions
Description: For western blot, cells were cultured in 6 well plates at a density of approximately 900,000 cells/well for 14 DIV before being treated. Treatments were added for 2, 4, 6, 8, 12 or 24 h in vitro before protein was harvested. For TrkB inhibitor studies, cells were cultured for 14 DIV and then treated with a TrkB specific inhibitor, K-252a (Sigma Aldrich), for 1 hour prior to being treated with the different conditions mentioned above. Protein was extracted after six hours of treatment.
Western Blot. Protein was extracted from primary neuronal cultures with Halt Protease and Phosphatase Inhibitor Cocktail (Thermo Scientific) and a BCA assay (Thermo Scientific) was performed to determine protein content of each sample. Cell protein was loaded into and separated using a 4-20% SDS-PAGE gel (Bio-Rad). It was then electrotransferred from the gel to a nitrocellulose membrane (Bio-Rad). The membranes were blocked with 5% milk solution (Bio-Rad) for 30 minutes followed by an overnight incubation with primary antibodies at 4° C. […] Protein signals were detected using Radiance Bioluminescent ECL substrate (Azure Biosystems). Densitometry analysis, standardized to total receptor content or Actin as a control for protein loading, was performed using ImageJ software.^3 For quantification, triplicate samples were analyzed and at least two different experiments were conducted.

TrkB receptor = target: T1, TrkB receptor (Mus musculus, UniProt P15209); experiment: TrkB receptor phosphorylation (p-TrkB) by western blot in primary cortical neurons; format: cell-based; details: for TrkB phosphorylation after pre-treatment with inhibitor K252a: K252a 2 h prior to treatment, 6 h post-treatment
T1 construct: Protein was extracted from primary neuronal cultures; endogenous in cells; host or cells: primary cortical neurons from E16 CD1 mouse embryos, 14 DIV
Description: 2.3.2. Dissection of Embryonic Primary Cortical Neurons. Neurons were obtained from embryonic brains as described elsewhere.^2 Briefly, time-pregnant mouse was sacrificed by cervical dislocation and the embryos were extracted at embryonic day 16 (E16). Cerebral cortices were dissected from the mouse embryos and meninges were removed in a solution of Hank's Balanced Salt Solution (HBSS) with 1% pen-strep (Invitrogen) and then digested with trypsin (Invitrogen) and DNAse (Sigma-Aldrich) for 10 min at 37° C. The tissue was mechanically dissociated, centrifuged at 1000 g for 5 min, and resuspended in CO2-equilibrated Neurobasal (NB) neuronal culture medium (Invitrogen) supplemented with 10% normal horse serum (NHS) (Invitrogen), 1% pen-strep (Invitrogen), 0.5 mM L-glutamine (Invitrogen), and 5.8 μL NaHCO3/mL (Sigma-Aldrich). The cell suspension was pre-plated at 37° C. for 30 min. Afterwards, the supernatant was collected, passed through a cell strainer with 100 μm pore size and centrifuged at 1000 g for 5 min. The pellet was resuspended in NB neuronal culture medium (1% NHS, 1% pen-strep, 0.5 mM L-glutamine, 22 μM glutamic acid (Sigma-Aldrich), 2% B27 (Gibco), and 5.8 μL NaHCO3/mL (Sigma-Aldrich), and plated at different densities (depending on the type of experiment, see below) directly on tissue culture plates coated with poly-D-lysine (Sigma-Aldrich). After 24 hs, the medium was replaced with serum-free neuronal culture medium (1% pen-strep, 0.5 mM L-glutamine, 2% B27, 5.8 μL NaHCO3/mL). Under these conditions, we obtained a neuron-enriched culture with a composition of approximately 10% glial cells.
BDNF PA Treatments and Cell Culture Procedures. Treatments were prepared by dissolving PA (including E2 Filler, E2 Filler+E4PEG, E2 Filler+Linear BDNF, E2 Filler+BDNF PAs) and BDNF peptide at different concentrations (0.5, 1.0 or 5.0 μM), in media without serum or B27 supplement or starvation media. Unless otherwise noted, BDNF PA, Linear BDNF PA, or E4PEG PAs were co-assembled at 10 mol % with E2 filler PA (total concentration of PA was 5.0, 10.0, or 50.0 μM respectively). For the co-assembly ratio study, BDNF PA was co-assembled at 10, 20, 50, 70, 90, and 100 mol %. Human/Murine/Rat BDNF protein (Peprotech) was resuspended at different concentrations (0.25, 0.5 and 1 nM) in starvation media.
For western blot, cells were cultured in 6 well plates at a density of approximately 900,000 cells/well for 14 DIV before being treated. Treatments were added for 2, 4, 6, 8, 12 or 24 h in vitro before protein was harvested. […] Protein was extracted after six hours of treatment.
Western Blot. Protein was extracted from primary neuronal cultures with Halt Protease and Phosphatase Inhibitor Cocktail (Thermo Scientific) and a BCA assay (Thermo Scientific) was performed to determine protein content of each sample. Cell protein was loaded into and separated using a 4-20% SDS-PAGE gel (Bio-Rad). It was then electrotransferred from the gel to a nitrocellulose membrane (Bio-Rad). The membranes were blocked with 5% milk solution (Bio-Rad) for 30 minutes followed by an overnight incubation with primary antibodies at 4° C. The following primary antibodies were used: rabbit anti-pTrkB (1:1000, Cell Signaling), rabbit anti-TrkB (1:1000, Cell Signaling), rabbit anti-Actin (1:2000, Sigma Aldrich), mouse anti-Actin (1:2000, Sigma Aldrich), rabbit anti-pPLCγ (1:1000, Cell Signaling), rabbit anti-PLCγ (1:1000, Cell Signaling), rabbit anti-pAKT (1:2000, Cell Signaling), mouse anti-AKT (1:2000, Cell Signaling), rabbit anti-pERK1+ERK2 (1:1000, Abcam), rabbit anti-ERK 1/2 (1:1000, Cell Signaling), rabbit anti-PSD95 (1:1000, Abcam), rabbit anti-MAP-2 (1:2000, BioLegend), and mouse anti-Tuj-1 (1:1000, BioLegend). Membranes were then incubated with their corresponding secondary HRP-conjugated antibodies (1:1000; ThermoFisher). Protein signals were detected using Radiance Bioluminescent ECL substrate (Azure Biosystems). […]

T1 sequence (P15209 32-821): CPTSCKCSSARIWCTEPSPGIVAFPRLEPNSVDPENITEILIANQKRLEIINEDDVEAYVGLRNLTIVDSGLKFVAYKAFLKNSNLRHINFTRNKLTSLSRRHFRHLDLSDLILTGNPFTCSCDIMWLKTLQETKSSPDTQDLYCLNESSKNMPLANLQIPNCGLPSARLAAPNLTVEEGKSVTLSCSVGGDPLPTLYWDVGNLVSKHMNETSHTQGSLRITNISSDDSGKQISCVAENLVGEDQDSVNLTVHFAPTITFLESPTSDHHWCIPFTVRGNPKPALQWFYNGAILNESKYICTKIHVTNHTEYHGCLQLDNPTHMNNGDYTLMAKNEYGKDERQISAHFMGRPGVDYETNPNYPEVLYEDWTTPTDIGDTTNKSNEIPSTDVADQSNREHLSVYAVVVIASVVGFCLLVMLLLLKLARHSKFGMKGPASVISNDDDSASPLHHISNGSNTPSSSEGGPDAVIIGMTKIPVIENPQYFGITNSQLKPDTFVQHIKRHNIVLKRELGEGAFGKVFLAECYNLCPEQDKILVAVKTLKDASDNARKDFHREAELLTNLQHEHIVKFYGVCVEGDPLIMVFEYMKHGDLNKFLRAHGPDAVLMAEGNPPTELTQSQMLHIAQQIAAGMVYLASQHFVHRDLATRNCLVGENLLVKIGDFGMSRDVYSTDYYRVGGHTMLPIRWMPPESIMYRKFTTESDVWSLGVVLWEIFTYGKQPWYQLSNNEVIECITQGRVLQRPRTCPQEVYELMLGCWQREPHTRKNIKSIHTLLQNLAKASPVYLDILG

Row | Molecule | activation of the MAPK pathway (pErk 1/2) (MAPK pathway (pErk 1/2)) | dose dependence of TrkB activation (TrkB receptor; 0.5, 1.0 and 5.0 μM, 6 h) | activation of TrkB receptor, co-assembly ratio study (TrkB receptor; 10-50 mol % BDNF PA co-assembled with E2 Filler PA, 6 h) | activation of TrkB receptor, co-assembly ratio study (TrkB receptor; 90-100 mol % BDNF PA (do not form fibers), 6 h) | TrkB phosphorylation after pre-treatment with inhibitor K252a (TrkB receptor) | persistence of p-TrkB (TrkB receptor; BDNF protein 0.25 nM, time course to 24 h)
1 | CCCCCCCCCCCCCCCC(=O)N[C@H](C(=O)N[C@H](C(=O)N[C@@H](C)C(=O)N[C@@H](C)C(=O)N[C@@H](CCC(=O)O)C(=O)N[C@@H](CCC(=O)O)C(=O)N[C@@H](CCC(=O)O)C(=O)N[C@@H](CCC(=O)O)C(=O)NCCOCCOCCOCCOCCOCCOCCC(=O)NCCCC[C@@H]1NC(=O)[C@H]2CCCN2C(=O)[C@H](CCCNC(=N)N)NC(=O)[C@H](CCCCN)NC(=O)[C@H](CCCCN)NC1=O)C(C)C)C(C)C [BDNF PA, RKK(aK)(dP)-(PEG6 Spacer)-EEEEAAVV-C16 (SEQ ID NO: 5)] (I: Palmitoyl-VVAAEEEE[PEG6] / II: cyclo(KKKR[dP]); amide I:C-II:1) | marked increase in activation | no dose-dependent activation of TrkB | increase in activation of TrkB receptor in comparison with the control conditions | unable to activate the receptor to the same degree | completely blocked | –
2 | B1 | marked increase in activation | – | – | – | completely blocked | no longer showing p-TrkB after 12 h

Reference: patent US12122811B2, “BDNF mimetic peptide amphiphiles” (Northwestern University, priority 2018, dated 2024)
